Test results taken from patent US20240189257A1, “COMPOSITIONS AND METHODS FOR MANAGING NEPHROPATHY” (SAMI-SABINSA GROUP LIMITED, priority 2021, published 2024).

System: High fat diet + STZ + DOCA (diabetic nephropathy)
Test: Renal lipids (triglyceride, total cholesterol, free fatty acid, phospholipids) by automated analyzer in high fat diet + STZ + DOCA model
Format: in vivo, rats
Description: After 1 week of adaptive feeding, the rats were randomly divided into normal control and experimental groups. The experimental group received high-fat diet (consisting of 70% standard laboratory chow, 15% carbohydrates, 10% lard, and 5% yolk powder) to establish an insulin resistance model, while the normal control group receive standard chow. After 4 weeks of high-fat diet feeding, the experimental group rats were induced with diabetes by a single intraperitoneal injection of STZ (35 mg/kg, dissolved in 0.01 M sodium citrate buffer, pH 4.4), while the Normal group rats were injected with the same dose of citrate buffer. At the 7th day after STZ injection, the blood glucose levels of rats were measured to confirm the successful establishment of the model. Rats with blood glucose level ≥250 mg/dl is indicative of the establishment of the disease and selected for further pharmacological studies. All rats were fed their respective diets until the end of the study. Rats were also given 1% NaCl (salt) to drink and on day 28, 0.75 μg […] (DOCA) was subcutaneously infused. Blood pressure and urinary albumin were measured to establish renal hypertension.
All the experimental rats were assigned to the specific treatment group and test drugs were administered orally once daily between 9:00 and 11:00 a.m., continuously for 12 weeks.
At the end of the treatment, all rats were be housed in individual metabolic cages for 24 h to collect urine samples and then sacrifice. Urine samples were centrifuged at 4000×g for 5 min to separate the supernatant. Blood samples are acquired by a small puncture to retro orbital plexus and centrifuged at 4000×g for 10 min at 4° C. to separate the plasma for subsequent experiments. Serum was also separated from the blood for analysis in which anti-coagulant was not added. Thereafter, the kidneys were immediately harvested and weighed. The right kidneys were washed in ice-cold saline solution and fixed in 4% neutral formaldehyde solution for histological examination, whereas the renal cortex of the left kidneys was rinsed with cold isotonic saline and subsequently stored at −70° C. until biochemical estimations.
Measurement of renal lipids viz. Triglyceride, Total cholesterol, Free Fatty Acid, Phospholipids was also done by automated analyzer.

[1] = decrease against High fat diet + STZ + DOCA group
[2] = renal lipids, high fat diet + STZ + DOCA rats, p.o. 12 weeks

SMILES: CN(C)C(=N)N=C(N)N [Metformin]
- Free fatty acids, % decrease (↓) [1]: 47.5%↓
- Phospholipids, % decrease (↓) [1]: 55.2%↓
- Total Cholesterol, % decrease (↓) [1]: 30%↓
- Triglycerides, % decrease (↓) [1]: 17.2%↓
- Free fatty acids [2]: 25.34 ± 1.88 mg/mL
- Phospholipids [2]: 4.33 ± 0.023 mg/mL
- Total Cholesterol [2]: 40.33 ± 3.50 mg/dL
- Triglycerides [2]: 122.67 ± 3.56 mg/mL
